Test results published in patent US8563584B2, “Substituted enaminothiocarbonyl compounds” (Bayer CropScience AG, priority 2008, dated 2013).

Legend:
[1] = test system: larvae of the mustard beetle (Phaedon cochleariae); experiment: Phaedon test (PHAECO spray treatment); type: in vivo; details: application rate of 500 g/ha; spray treatment of Chinese cabbage leaf discs
Protocol: Phaedon Test ([…] Spray Treatment) Solvents: 78 parts by weight of acetone • • 1.5 parts by weight of dimethylformamide Emulsifier: 0.5 part by weight of alkylaryl polyglycol ether To produce a suitable preparation of active compound, 1 part by weight of active compound is mixed with the stated amounts of solvent and emulsifier, and the concentrate is diluted with emulsifier-containing water to the desired concentration. Discs of Chinese cabbage leaves (Brassica pekinensis) are sprayed with an active compound preparation of the desired concentration and, after drying, populated with larvae of the mustard beetle (Phaedon cochleariae). After the desired period of time, the effect in % is determined 100% means that all beetle larvae have been killed; 0% means that none of the beetle larvae have been killed.

[2] = test system: green peach aphid (Myzus persicae); experiment: Myzus test (MYZUPE spray treatment); type: in vivo; details: application rate of 500 g/ha; spray treatment of infested Chinese cabbage leaf discs, all stages
Protocol: Myzus Test (MYZUPE Spray Treatment) Solvents: 78 parts by weight of acetone • • 1.5 parts by weight of dimethylformamide Emulsifier: 0.5 part by weight of alkylaryl polyglycol ether To produce a suitable preparation of active compound, 1 part by weight of active compound is mixed with the stated amounts of solvent and emulsifier, and the concentrate is diluted with emulsifier-containing water to the desired concentration. Discs of Chinese cabbage leaves (Brassica pekinensis) which are infested by all stages of the green peach aphid (Myzus persicae) are sprayed with a preparation of active compound of the desired concentration. After the desired period of time, the effect in % is determined 100% means that all aphids have been killed; 0% means that none of the aphids have been killed.

## FC(F)CN(Cc1ccc(Cl)nc1)C1=CC(=S)OC1 [Ex. No. 1, 4-{[(6-Chloropyridin-3-yl)methyl](2,2-difluoroethyl)amino}furan-2(5H)-thione]
[1]
  activity (effect in %; 100% means that all beetle larvae have been killed): ≥ 80%
[2]
  activity (effect in %; 100% means that all aphids have been killed): ≥ 80%
